Among the test systems are CCRF-CEM leukemia; COLO 205 colon; MALME-3M melanoma; NCI-H23 lung; SF-539 CNS; SK-MEL-28 melanoma; SW-620 colon; TK-10 renal.
Common to all, as to experiment: DTP human tumour cell line panel, 48 h

Values joined by “and” are separate entries in the source; they are usually repeats but may differ in a detail not shown here. Equal values may be shown once.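 48-hour exposure; five concentrations; linearly interpolated endpoints. At the GI50, growth is halved. TGI marks complete inhibition of growth.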

This note sets out measurements from PubChem BioAssay (NCI).

Take `CC(C)C(NCc1c2ccccc2nc2ccccc12)C(=O)O` (centres undefined): the TGI was 88.3 µM with CCRF-CEM leukemia; more than 100 µM in the assay with COLO 205 colon; more than 100 µM in the assay on MALME-3M melanoma; more than 100 µM with NCI-H23 lung; more than 100 µM with SF-539 CNS; more than 100 µM in the assay on SK-MEL-28 melanoma. Also, the TGI in the assay with SW-620 colon and with TK-10 renal was more than 100 µM throughout.
On to `O=C1NC(=Nc2ccccc2Cl)SC1C(=O)Nc1ccc([N+](=O)[O-])cc1[N+](=O)[O-]` (centres undefined), for which the TGI with CCRF-CEM leukemia, with COLO 205 colon, with MALME-3M melanoma, with NCI-H23 lung, with SF-539 CNS and with SK-MEL-28 melanoma was more than 100 µM throughout. Also, the TGI with SW-620 colon and in the assay on TK-10 renal was more than 100 µM throughout.
Regarding `O=C1CCC(=O)C(C(=O)CCC(=O)Nc2ccc(Cl)cc2)C1` (centres undefined), the TGI in the assay on CCRF-CEM leukemia, with COLO 205 colon, in the assay on MALME-3M melanoma, with NCI-H23 lung, with SF-539 CNS and in the assay with SW-620 colon was more than 100 µM in each case. In the assay on TK-10 renal, this molecule came in with a TGI of more than 100 µM.
Take `Cc1nc(=O)n2c(c1C(=O)Nc1ccc(Cl)cc1)NCCC2`: the TGI with CCRF-CEM leukemia, with COLO 205 colon, in the assay on MALME-3M melanoma, in the assay with NCI-H23 lung, with SF-539 CNS and in the assay on SK-MEL-28 melanoma was more than 100 µM in each case. Further, the TGI with SW-620 colon and in the assay on TK-10 renal was more than 100 µM throughout.
In the case of `CC(=O)OC1CC2C(C)(C)C(=O)C=C[C@]2(C)C2CCC3(C)C(=CCC3[C@H](CO)C[C@H](O)C(=O)C(C)(C)O)[C@]12C` (some centres undefined), the TGI with CCRF-CEM leukemia was 66.3 µM; with COLO 205 colon it was more than 100 µM; in the assay with MALME-3M melanoma it was 33.3 µM; in the assay on SF-539 CNS, 35.1 µM; in the assay on SK-MEL-28 melanoma, 36.5 µM; with SW-620 colon, 41 µM. In the assay with TK-10 renal, this molecule yielded a TGI of 65.9 µM.
With `CC1CC(=O)CC[C@@H]1OCc1ccccc1` (some centres undefined), the TGI in the assay on CCRF-CEM leukemia, in the assay on COLO 205 colon, in the assay on MALME-3M melanoma, in the assay on NCI-H23 lung, in the assay on SF-539 CNS and in the assay on SW-620 colon was more than 100 µM each time. The same molecule registered a TGI in the assay on TK-10 renal of more than 100 µM.
Turning to `CCOc1c(Cc2ccccc2)c(=O)n2c3ccccc3n3c(=O)n(C)c(=O)c1c23`, the TGI with COLO 205 colon, with MALME-3M melanoma, with NCI-H23 lung, in the assay with SF-539 CNS, in the assay with SK-MEL-28 melanoma and in the assay on SW-620 colon was more than 100 µM each time. In the assay with TK-10 renal, this molecule yielded a TGI of more than 100 µM.
With `c1cc[c]([Sn]([O]c2cccc3cccnc23)([c]2ccccc2)[c]2ccccc2)cc1`, the GI50 with CCRF-CEM leukemia was 0.0115 µM; with COLO 205 colon, 0.0161 µM; in the assay with NCI-H23 lung, 0.0158 µM; in the assay with SF-539 CNS it was 0.0195 µM; in the assay with SK-MEL-28 melanoma, 0.0116 µM; in the assay with SW-620 colon, 0.0101 µM. For the same molecule, the GI50 in the assay with TK-10 renal was 0.0229 µM. The TGI amounted to 0.11 µM in the assay on CCRF-CEM leukemia; 0.0302 µM with COLO 205 colon; 0.0397 µM in the assay on NCI-H23 lung; 0.0387 µM in the assay on SF-539 CNS; 0.0299 µM with SK-MEL-28 melanoma; 0.0217 µM in the assay with SW-620 colon. The same molecule yielded a TGI in the assay with TK-10 renal of 0.0693 µM.
In the case of `Cc1ccc(/C=C2\CN(C(=O)CCN3CCC(=NO)CC3)C/C(=C\c3ccc(C)cc3)C2=O)cc1`, in the assay on SF-539 CNS, the GI50 is 1.77 µM and the TGI is 3.27 µM. In addition, in the assay with SK-MEL-28 melanoma, the GI50 is 2.06 µM and the TGI is 4.63 µM.
As for `COc1ccc(CN[C@H]2CCc3cc(OC)c(OC)c(OC)c3-c3ccc(SC)c(=O)cc32)c(OC)c1OC`, the GI50 in the assay with CCRF-CEM leukemia was 0.0107 µM; in the assay on COLO 205 colon, less than 0.01 µM; with MALME-3M melanoma, less than 0.01 µM; in the assay with NCI-H23 lung, less than 0.01 µM; in the assay on SF-539 CNS, 0.01 µM; in the assay on SK-MEL-28 melanoma, 0.0101 µM. For the same molecule, in the assay with SW-620 colon, the 50% growth inhibitory concentration (GI50) was less than 0.01 µM. The TGI in the assay on CCRF-CEM leukemia was 5.46 µM; in the assay on COLO 205 colon, 0.0645 µM and 0.0155 µM; with MALME-3M melanoma, more than 100 µM; in the assay on NCI-H23 lung it was 0.058 µM and 0.0396 µM; with SF-539 CNS, 0.0478 µM and 0.0387 µM; in the assay on SK-MEL-28 melanoma, more than 100 µM. The TGI in the assay with SW-620 colon and with TK-10 renal was more than 100 µM in each case.
Turning to `CN(C)/C=C/C(=O)c1cccc(C(=O)/C=C/N(C)C)n1`, the TGI in the assay with CCRF-CEM leukemia, with COLO 205 colon, in the assay on MALME-3M melanoma, in the assay on NCI-H23 lung, with SF-539 CNS and in the assay on SK-MEL-28 melanoma was more than 100 µM each time. In addition, the TGI in the assay with SW-620 colon and in the assay with TK-10 renal was more than 100 µM each time.
In the case of `O=C(O)CSc1nnc(COc2ccccc2)n1-c1ccccc1`, the total growth inhibition concentration (TGI) in the assay on CCRF-CEM leukemia, in the assay on COLO 205 colon, in the assay on MALME-3M melanoma, in the assay on NCI-H23 lung, in the assay with SF-539 CNS and with SK-MEL-28 melanoma was more than 100 µM in each case. The molecule also yielded a TGI in the assay on TK-10 renal of more than 100 µM.
As to `COC(=O)C1=C(c2cc(OC)c(OC)c(OC)c2)OC(c2cc(OC)c(OC)c(OC)c2)C1` (centres undefined), the concentration for total growth inhibition (TGI) is more than 100 µM with CCRF-CEM leukemia; 33 µM in the assay on COLO 205 colon; 72.3 µM with MALME-3M melanoma; 48.9 µM in the assay on NCI-H23 lung; 75.1 µM with SF-539 CNS; more than 100 µM in the assay with SK-MEL-28 melanoma. The TGI in the assay with SW-620 colon is more than 100 µM; in the assay with TK-10 renal it was 63.9 µM.
In the case of `COC(=O)C([O][Ge]([CH3])([CH3])[CH3])c1ccccc1` (centres undefined), the GI50 with CCRF-CEM leukemia, in the assay with COLO 205 colon, in the assay with MALME-3M melanoma, in the assay with NCI-H23 lung, in the assay with SF-539 CNS and in the assay with SK-MEL-28 melanoma was more than 100 µM throughout. Further, the GI50 in the assay with SW-620 colon and with TK-10 renal was more than 100 µM throughout. Besides, the TGI in the assay on CCRF-CEM leukemia, with COLO 205 colon, with MALME-3M melanoma, with NCI-H23 lung, in the assay with SF-539 CNS and in the assay with SK-MEL-28 melanoma was more than 100 µM each time. Also, the TGI in the assay with SW-620 colon and in the assay with TK-10 renal was more than 100 µM each time.
